Measured values taken from patent US20090203734A1, “F1F0-ATPASE INHIBITORS AND RELATED METHODS” (The Regents of the University of Michigan, priority 2008, published 2009).

Tests used:
Ramos B cells [1] = assay: Early superoxide (O2-, ROS) response in Ramos B cells; assay type: cell-based; conditions: Homo sapiens, O2- response 1 h following incubation with drug
Procedure: (§1) Since an early mitochondrial superoxide (O2^−) mediates apoptosis induced by Bz-423, the O2^− response of cells 1 h following incubation with drug was examined, as well as cell death at 24 h, as previously described (see, e.g., Blatt, N. B., et al., 2002 J Clin Invest 110, 1123-1132; incorporated herein by reference in its entirety).

Jurkat T cells [2] = assay: Early superoxide (O2-, ROS) response in Jurkat T cells; assay type: cell-based; conditions: Homo sapiens, O2- response 1 h following incubation with drug
Procedure: as §1

bovine F1Fo-ATPase [3] = target: T1, bovine F1Fo-ATPase (Bos taurus, UniProt P13621); assay: ATP hydrolysis by F1Fo-ATPase in bovine submitochondrial particles (SMPs); assay type: biochemical
T1 construct: bovine F1Fo-ATPase present in submitochondrial particles (SMPs); from tissue

bovine F1Fo-ATPase [4] = target: T1, bovine F1Fo-ATPase; assay: ATP synthesis by F1Fo-ATPase in bovine submitochondrial particles (SMPs); assay type: biochemical
Jurkat T cells [5] = assay: Cell death in Jurkat T cells; assay type: cell-based; conditions: Homo sapiens, cell death at 24 h
Procedure: as §1

Ramos B cells [6] = assay: Cell death in Ramos B cells; assay type: cell-based; conditions: Homo sapiens, cell death at 24 h
Procedure: as §1

[7] = bovine SMPs, drug 0-300 μM, read-out: ATPase activity EC50, Hydrolysis
[8] = read-out: ATPase activity EC50, Synthesis

| Structure (SMILES) | EC50 (Ramos B cells [1]) [µM] | EC50 (Jurkat T cells [2]) [µM] | EC50 (bovine F1Fo-ATPase [3]) [µM] | EC50 (bovine F1Fo-ATPase [4]; ATPase activity EC50, Synthesis) [µM] | EC50 (Jurkat T cells [5]) [µM] | EC50 (Ramos B cells [6]) [µM] | EC50 (bovine F1Fo-ATPase [3]; [7]) [µM] | EC50 (bovine F1Fo-ATPase [4]; [8]) [µM] |
| --- | --- | --- | --- | --- | --- | --- | --- | --- |
| CN1C(=O)CN=C(c2ccccc2)c2cc(Cl)ccc21 [Dz, diazepam] | 170 | 200 | > 300 | 210 | 170 | 250 |  |  |
| CN1C(=O)C(Cc2ccc3ccccc3c2)N=C(c2ccc(O)cc2)c2cc(Cl)ccc21 (stereo not drawn) [Bz-423] |  |  |  |  |  |  | 8.9 | 5.5 |
| CN1C(=O)CN=C(c2ccc(Cl)cc2)c2cc(Cl)ccc21 [Compound 4-Cl-Dz, 4-chlorodiazepam] |  |  |  |  |  |  | > 300 | 210 |
| O=C1CN=C(c2ccccc2Cl)c2cc([N+](=O)[O-])ccc2N1 [Cz, clonazepam] |  |  |  |  |  |  | 240 | 120 |
